Reference: ChEMBL document CHEMBL6087437 (J Med Chem, 2025)
Active and inactive are the calls of the source. No cut-off for these calls is given here.

Columns and labels:
Ebolavirus [1] = assay: Antiviral activity against pseudotyped Ebola virus expressing glycoprotein infected in human A549 cells assessed as inhibition of viral entry incubated for 48 hrs by Neolite reporter gene assay; assay type: functional, organism-based; conditions: Orthoebolavirus, A549, 48 h
Marburgvirus = assay: Antiviral activity against pseudotyped Marburg virus expressing glycoprotein infected in human A549 cells assessed as inhibition of viral entry incubated for 48 hrs by Neolite reporter gene assay; assay type: functional, organism-based; conditions: Orthomarburgvirus, A549, 48 h
[2] = Selectivity index, ratio of CC50 for human A549 cells to EC50 for pseudotyped Ebola virus expressing glycoprotein infected in human A549 cells; assay type: toxicity, cell-based; conditions: read-out: Ratio CC50/EC50
Zaire ebolavirus = assay: Antiviral activity against pseudotyped Zaire ebolavirus expressing glycoprotein infected in human A549 cells assessed as inhibition of viral entry incubated for 48 hrs by Neolite reporter gene assay; assay type: functional, organism-based; conditions: A549, 48 h
Sudan ebolavirus = assay: Antiviral activity against pseudotyped Sudan ebolavirus expressing glycoprotein infected in human A549 cells assessed as inhibition of viral entry incubated for 48 hrs by Neolite reporter gene assay; assay type: functional, organism-based; conditions: A549, 48 h
Bundibugyo virus = assay: Antiviral activity against pseudotyped Bundibugyo ebolavirus expressing glycoprotein infected in human A549 cells assessed as inhibition of viral entry incubated for 48 hrs by Neolite reporter gene assay; assay type: functional, organism-based; conditions: A549, 48 h
Reston ebolavirus = assay: Antiviral activity against pseudotyped Reston ebolavirus expressing glycoprotein infected in human A549 cells assessed as inhibition of viral entry incubated for 48 hrs by Neolite reporter gene assay; assay type: functional, organism-based; conditions: A549, 48 h
Tai Forest ebolavirus = assay: Antiviral activity against pseudotyped Tai Forest ebolavirus expressing glycoprotein infected in human A549 cells assessed as inhibition of viral entry incubated for 48 hrs by Neolite reporter gene assay; assay type: functional, organism-based; conditions: A549, 48 h
Ebolavirus [3] = assay: Antiviral activity against wildtype Ebola virus infected in human HeLa cells incubated for 40 hrs by Hoechst 33342 staining based Cytation-1 automated microscopic analysis; assay type: functional, organism-based; conditions: Orthoebolavirus
HeLa = assay: Cytotoxicity against human HeLa cells by Celltiter-Glo luminescent cell viability assay; assay type: toxicity, cell-based
[4] = Selectivity index, ratio of CC50 for human HeLa cells to EC50 for antiviral activity against wildtype Ebolavirus infected in human HeLa cells; assay type: toxicity, cell-based; conditions: read-out: Ratio CC50/EC50
Ebolavirus [5] = assay: Binding affinity to Ebolavirus glycoprotein by SPR analysis
[6] = Metabolic stability in human liver microsomes assessed as parent compound remaining measured after 60 mins in presence of NADPH by LC-MS/MS analysis; assay type: ADME, Microsome; conditions: read-out: Stability
[7] = Metabolic stability in BALB/c mouse liver microsomes assessed as parent compound remaining measured after 60 mins in presence of NADPH by LC-MS/MS analysis; assay type: ADME, Microsome; conditions: read-out: Stability
[8] = Stability in human plasma assessed as parent compound remaining at 2 uM measured after 60 mins by LC-MS/MS analysis; assay type: ADME, cell-free; conditions: read-out: Stability
[9] = Stability in mouse plasma assessed as parent compound remaining at 2 uM measured after 60 mins by LC-MS/MS analysis; assay type: ADME, cell-free; conditions: read-out: Stability
CYP1A2 = target: T1, CYP1A2 (Homo sapiens, UniProt P05177); assay: Inhibition of CYP1A2 in human liver microsomes using phenacetin as substrate at 10 uM preincubated for 5 mins followed by substrate addition and measured after 20 mins by LC-MS analysis relative to control; assay type: ADME, Microsome; conditions: probe phenacetin, time 25 min
T1 sequence (P05177 whole entry): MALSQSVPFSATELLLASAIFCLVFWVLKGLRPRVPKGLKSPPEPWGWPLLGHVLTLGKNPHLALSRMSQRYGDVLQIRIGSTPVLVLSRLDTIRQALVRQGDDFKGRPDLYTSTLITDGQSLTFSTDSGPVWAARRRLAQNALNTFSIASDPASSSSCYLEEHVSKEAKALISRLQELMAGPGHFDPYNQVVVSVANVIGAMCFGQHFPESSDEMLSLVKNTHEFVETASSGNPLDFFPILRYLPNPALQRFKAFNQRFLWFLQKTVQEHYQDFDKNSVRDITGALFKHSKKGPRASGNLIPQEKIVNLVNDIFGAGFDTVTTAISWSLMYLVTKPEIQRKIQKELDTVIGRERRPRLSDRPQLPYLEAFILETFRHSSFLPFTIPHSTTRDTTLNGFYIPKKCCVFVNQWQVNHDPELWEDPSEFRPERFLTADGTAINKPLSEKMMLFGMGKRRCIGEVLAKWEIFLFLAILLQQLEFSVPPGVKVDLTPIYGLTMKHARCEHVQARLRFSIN

CYP2C9 = CYP2C9 (Homo sapiens, UniProt P11712); assay: Inhibition of CYP2C9 in human liver microsomes using tolbutamide as substrate at 10 uM preincubated for 5 mins followed by substrate addition and measured after 20 mins by LC-MS analysis relative to control; assay type: ADME, Microsome; conditions: probe tolbutamide, time 25 min
CYP2D6 = CYP2D6 (Homo sapiens, UniProt P10635); assay: Inhibition of CYP2D6 in human liver microsomes using dextromethorphan as substrate at 10 uM preincubated for 5 mins followed by substrate addition and measured after 20 mins by LC-MS analysis relative to control; assay type: ADME, Microsome; conditions: probe dextromethorphan, time 25 min
[10] = target: Voltage-gated inwardly rectifying potassium channel KCNH2 (Homo sapiens, UniProt Q12809); assay: Inhibition of human ERG; assay type: toxicity
[11] = Half-life in female C57BL/6J mouse at 25 mg/kg, ip; assay type: ADME, organism-based; conditions: in vivo
[12] = Tmax in female C57BL/6J mouse at 25 mg/kg, ip; assay type: ADME, organism-based; conditions: in vivo
[13] = Cmax in female C57BL/6J mouse at 25 mg/kg, ip; assay type: ADME, organism-based; conditions: in vivo
[14] = AUC in female C57BL/6J mouse at 25 mg/kg, ip; assay type: ADME, organism-based; conditions: in vivo
[15] = Clearance in female C57BL/6J mouse at 25 mg/kg, ip; assay type: ADME, organism-based; conditions: in vivo
[16] = Half-life in female C57BL/6J mouse at 50 mg/kg, ip; assay type: ADME, organism-based; conditions: in vivo
[17] = Tmax in female C57BL/6J mouse at 50 mg/kg, ip; assay type: ADME, organism-based; conditions: in vivo
[18] = Cmax in female C57BL/6J mouse at 50 mg/kg, ip; assay type: ADME, organism-based; conditions: in vivo
[19] = AUC in female C57BL/6J mouse at 50 mg/kg, ip; assay type: ADME, organism-based; conditions: in vivo
[20] = Clearance in female C57BL/6J mouse at 50 mg/kg, ip; assay type: ADME, organism-based; conditions: in vivo
Influenza A virus = assay: Antiviral activity against pseudotyped Influenza A virus A/Goose/Qinghai/59/05(H5N1) infected in human A549 cells assessed as inhibition of viral entry incubated for 48 hrs by Neolite reporter gene assay; assay type: functional, organism-based
[21] = system: Vesicular stomatitis virus; assay: Antiviral activity against pseudotyped vesicular stomatitis virus expressing glycoprotein infected in human A549 cells assessed as inhibition of viral entry incubated for 48 hrs by Neolite reporter gene assay; assay type: functional, organism-based
A549 = assay: Induction of phospholipidosis in human A549 cells at 10 uM incubated for 48 hrs by Hoechst 33342 staining based fluorescence imaging analysis; assay type: functional, cell-based
CYP3A4 = CYP3A4 (Homo sapiens, UniProt P08684); assay: Inhibition of CYP3A4 in human liver microsomes using midazolam as substrate at 10 uM preincubated for 5 mins followed by substrate addition and measured after 20 mins by LC-MS analysis relative to control; assay type: ADME, Microsome; conditions: probe midazolam, time 25 min
[22] = Toxicity in female C57BL/6J mouse assessed as adverse effect at 25 to 50 mg/kg, ip; assay type: organism-based; conditions: in vivo, dose 25-50 mg/kg

Voltage-gated inwardly rectifying potassium channel KCNH2, sequence (Q12809 whole entry): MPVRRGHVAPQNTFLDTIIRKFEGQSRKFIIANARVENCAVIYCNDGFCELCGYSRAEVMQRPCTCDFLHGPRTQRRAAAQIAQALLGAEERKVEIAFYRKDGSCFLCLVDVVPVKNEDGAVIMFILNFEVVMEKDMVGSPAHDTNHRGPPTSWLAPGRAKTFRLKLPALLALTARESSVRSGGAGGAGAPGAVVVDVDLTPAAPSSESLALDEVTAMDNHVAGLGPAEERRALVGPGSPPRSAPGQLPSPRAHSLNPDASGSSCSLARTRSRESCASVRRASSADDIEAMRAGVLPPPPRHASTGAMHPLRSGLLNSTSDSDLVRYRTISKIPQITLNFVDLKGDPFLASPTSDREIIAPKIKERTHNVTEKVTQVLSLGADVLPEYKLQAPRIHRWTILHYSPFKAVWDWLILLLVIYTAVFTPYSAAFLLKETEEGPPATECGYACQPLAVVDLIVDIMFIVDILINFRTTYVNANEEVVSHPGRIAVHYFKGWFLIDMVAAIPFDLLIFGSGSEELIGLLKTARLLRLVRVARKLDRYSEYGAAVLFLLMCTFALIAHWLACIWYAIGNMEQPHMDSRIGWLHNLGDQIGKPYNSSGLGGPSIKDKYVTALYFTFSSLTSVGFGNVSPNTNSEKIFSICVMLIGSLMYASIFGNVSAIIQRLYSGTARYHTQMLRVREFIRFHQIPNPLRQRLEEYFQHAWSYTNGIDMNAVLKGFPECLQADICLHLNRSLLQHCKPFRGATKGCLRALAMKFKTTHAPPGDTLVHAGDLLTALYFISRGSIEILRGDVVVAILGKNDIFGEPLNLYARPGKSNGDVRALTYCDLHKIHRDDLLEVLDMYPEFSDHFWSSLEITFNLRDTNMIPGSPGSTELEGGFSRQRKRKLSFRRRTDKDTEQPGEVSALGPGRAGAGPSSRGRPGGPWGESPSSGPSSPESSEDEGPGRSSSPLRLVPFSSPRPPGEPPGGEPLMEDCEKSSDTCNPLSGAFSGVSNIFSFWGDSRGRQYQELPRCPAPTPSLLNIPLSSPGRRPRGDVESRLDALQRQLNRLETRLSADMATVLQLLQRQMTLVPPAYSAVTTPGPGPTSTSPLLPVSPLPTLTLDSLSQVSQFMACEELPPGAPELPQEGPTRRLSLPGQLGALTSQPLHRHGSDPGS
CYP2D6, sequence (P10635 whole entry): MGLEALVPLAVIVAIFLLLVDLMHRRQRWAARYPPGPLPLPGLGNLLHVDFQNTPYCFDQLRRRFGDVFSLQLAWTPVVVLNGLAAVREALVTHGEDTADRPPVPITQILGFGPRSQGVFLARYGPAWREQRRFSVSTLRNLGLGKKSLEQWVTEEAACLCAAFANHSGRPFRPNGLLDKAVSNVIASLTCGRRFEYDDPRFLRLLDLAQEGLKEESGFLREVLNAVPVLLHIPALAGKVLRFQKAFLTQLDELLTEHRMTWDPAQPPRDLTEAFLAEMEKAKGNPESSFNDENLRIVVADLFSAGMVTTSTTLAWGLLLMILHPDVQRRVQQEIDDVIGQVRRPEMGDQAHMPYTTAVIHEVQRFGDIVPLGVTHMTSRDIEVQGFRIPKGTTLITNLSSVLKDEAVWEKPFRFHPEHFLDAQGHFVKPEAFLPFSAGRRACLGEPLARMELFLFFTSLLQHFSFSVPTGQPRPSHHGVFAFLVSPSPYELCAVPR
CYP2C9, sequence (P11712 whole entry): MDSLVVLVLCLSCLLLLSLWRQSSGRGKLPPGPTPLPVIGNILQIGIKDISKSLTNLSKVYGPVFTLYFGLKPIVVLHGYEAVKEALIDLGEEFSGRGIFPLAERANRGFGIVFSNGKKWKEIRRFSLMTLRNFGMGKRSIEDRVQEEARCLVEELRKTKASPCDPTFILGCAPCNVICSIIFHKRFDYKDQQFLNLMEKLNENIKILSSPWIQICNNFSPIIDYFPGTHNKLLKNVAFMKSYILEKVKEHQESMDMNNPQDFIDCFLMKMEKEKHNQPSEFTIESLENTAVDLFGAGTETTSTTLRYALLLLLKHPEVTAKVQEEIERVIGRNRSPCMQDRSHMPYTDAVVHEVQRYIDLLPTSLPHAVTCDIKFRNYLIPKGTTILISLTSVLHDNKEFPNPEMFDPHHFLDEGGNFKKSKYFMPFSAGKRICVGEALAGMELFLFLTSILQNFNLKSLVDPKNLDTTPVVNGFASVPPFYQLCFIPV
CYP3A4, sequence (P08684 whole entry): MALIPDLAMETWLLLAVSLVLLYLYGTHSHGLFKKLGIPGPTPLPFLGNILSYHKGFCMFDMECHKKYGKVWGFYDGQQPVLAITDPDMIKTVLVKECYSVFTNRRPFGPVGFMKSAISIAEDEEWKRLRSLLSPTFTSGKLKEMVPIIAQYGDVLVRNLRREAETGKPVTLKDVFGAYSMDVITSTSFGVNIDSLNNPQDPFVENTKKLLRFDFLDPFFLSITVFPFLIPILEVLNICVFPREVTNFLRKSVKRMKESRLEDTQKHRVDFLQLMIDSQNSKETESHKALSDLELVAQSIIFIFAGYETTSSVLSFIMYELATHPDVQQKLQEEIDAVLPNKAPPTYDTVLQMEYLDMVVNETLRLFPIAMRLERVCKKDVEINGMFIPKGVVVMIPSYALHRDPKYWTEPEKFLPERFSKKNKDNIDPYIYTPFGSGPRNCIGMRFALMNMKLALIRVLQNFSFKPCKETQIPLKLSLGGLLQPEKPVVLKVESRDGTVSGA

| SMILES | EC50 (Ebolavirus [1]) [nM] | EC50 (Marburgvirus) [nM] | selectivity ratio [2] | EC50 (Zaire ebolavirus) [nM] | EC50 (Sudan ebolavirus) [nM] | EC50 (Bundibugyo virus) [nM] | EC50 (Reston ebolavirus) [nM] | EC50 (Tai Forest ebolavirus) [nM] | EC50 (Ebolavirus [3]) [nM] | CC50 (HeLa) [nM] | selectivity ratio [4] | remaining at 1 h [6] [%] | remaining at 1 h [7] [%] | remaining at 1 h, 2 µM [8] [%] | remaining at 1 h, 2 µM [9] [%] | inhibition at 20 min, 10 µM (CYP1A2) [%] | inhibition at 20 min, 10 µM (CYP2C9) [%] | inhibition at 20 min, 10 µM (CYP2D6) [%] | IC50 [10] [nM] | half-life [11] [h] | further results |
| --- | --- | --- | --- | --- | --- | --- | --- | --- | --- | --- | --- | --- | --- | --- | --- | --- | --- | --- | --- | --- | --- |
| CC1CCN(c2ccc(NC(=O)c3ccc(CN4CCOCC4)cc3)cc2C(F)(F)F)CC1 | 220 | 5280 | 129 | 220 | 1280 | 3670 | 740 | 170 | 540 | 42700 | 77 | – | – | – | – | – | – | – | – | – | Activity (Ebolavirus [5]): Active |
| O=C(Nc1ccc(N2CCC3(CCC3)CC2)c(C(F)(F)F)c1)c1ccc(C(=O)N2C[C@@H]3C[C@H]2CO3)nc1 | 160 | 2240 | 258 | 160 | 890 | 210 | 210 | 110 | 730 | 47700 | 65 | 83.6 | 84 | ~100 | 97 | 13.5 | 56.6 | 24.9 | 9400 | 1.4 | Tmax [12]: 1.7 h; Cmax [13]: 5370 ng/mL; AUC [14]: 20700 ng·h/mL; CL/F [15]: 20.2 mL/min/kg; half-life [16]: 1.9 h; Tmax [17]: 0.7 h; Cmax [18]: 14600 ng/mL; AUC [19]: 57800 ng·h/mL; CL/F [20]: 14.4 mL/min/kg; inhibition (Influenza A virus): Weak_effect; inhibition [21]: Weak_effect; Activity (A549): inactive |
| O=C(Nc1ccc(N2CCC3(CCC3)CC2)c(C(F)(F)F)c1)c1ccc(CN2C[C@@H]3C[C@H]2CO3)nc1 | 120 | 680 | – | 120 | 2140 | 840 | 300 | 290 | 440 | 19100 | – | 60 | 77 | ~100 | 90 | 5.4 | 66.4 | 35.2 | 1500 | 3.4 | inhibition at 20 min, 10 µM (CYP3A4): 4.9%; Activity [22]: Non-toxic; Tmax [12]: 0.5 h; Cmax [13]: 2170 ng/mL; AUC [14]: 14300 ng·h/mL; CL/F [15]: 29.2 mL/min/kg; half-life [16]: 4.8 h; Tmax [17]: 1 h; Cmax [18]: 6790 ng/mL; AUC [19]: 34400 ng·h/mL; CL/F [20]: 24.3 mL/min/kg; inhibition (Influenza A virus): Weak_effect; inhibition [21]: Weak_effect |
